The target in the assay is T1, human A2B receptor (Homo sapiens, UniProt P29275).
T1 construct: host or cells: HEK293 cells stably expressing the receptor; membranes prepared from them
T1 sequence (P29275 1-332): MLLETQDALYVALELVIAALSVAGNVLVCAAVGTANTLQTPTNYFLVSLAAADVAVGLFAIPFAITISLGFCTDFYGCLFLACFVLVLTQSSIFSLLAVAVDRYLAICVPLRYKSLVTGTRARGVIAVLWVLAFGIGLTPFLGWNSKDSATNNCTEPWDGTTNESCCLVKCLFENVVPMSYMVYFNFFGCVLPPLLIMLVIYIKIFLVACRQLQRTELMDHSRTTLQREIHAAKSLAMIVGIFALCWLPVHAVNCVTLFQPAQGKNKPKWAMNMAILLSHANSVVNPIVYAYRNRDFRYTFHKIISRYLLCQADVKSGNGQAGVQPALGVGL
In words: Adenosine 2B receptor subtype competition radioligand binding assay. The note with it: [3H]-DPCPX competition, membranes from HEK293 cells expressing human A2B receptor. The method, then: A2B membranes were prepared from HEK293 cells stably expressing the human A2B receptor that were purchased from Euroscreen (ES-013-C). […] At the end of the incubation, samples were transferred to a GF/C filter plates (Milipore MAFCN0B50) pretreated for 15 min. with 250 μl of Tris-HCl 50 mM pH 6.5 (Buffer B). Samples were then filtered 4 times with 250 μl of buffer B. Samples were counted using 30 μl of Hisafe II (Perkin Elmer) in a Trilux counter.
Molecule `COc1nc(-c2ccncc2)c(-c2ccco2)nc1N` [Example 67, 6-(2-Furyl)-3-methoxy-5-pyridin-4-ylpyrazin-2-amine] yielded a Ki of 9 nM. With `O=C(Nc1cnc(-c2ccncc2Cl)c(-c2ccccn2)n1)C1CC1` [Example 22, N-[5-(3-Chloropyridin-4-yl)-6-pyridin-2-ylpyrazin-2-yl]cyclopropanecarboxamide] the figure was 16 nM; with `O=c1[nH]c2nc(-c3ccncc3)c(-c3cccc(F)c3)nc2[nH]1` [Example 76, 5-(3-Fluorophenyl)-6-pyridin-4-yl-1,3-dihydro-2H-imidazo[4,5-b]pyrazin-2-one], 4 nM; with `COc1ccc(-c2nc(NC(=O)C3CC3)cnc2-c2ccncc2F)cn1` [Example 119, N-[5-(3-Fluoropyridin-4-yl)-6-(6-methoxypyridin-3-yl)pyrazin-2-yl]cyclopropane carboxamide], 3 nM. With `Fc1cnccc1-c1nc2cc(-c3cccnc3)[nH]c2nc1-c1cccnc1` [Example 149, 2-(3-Fluoropyridin-4-yl)-3,6-dipyridin-3-yl-5H-pyrrolo[2,3-b]pyrazine] the figure was 0.9 nM; with `Nc1cnc(-c2ccncc2F)c(-c2cccc(F)c2)n1` [Example 3, 6-(3-Fluorophenyl)-5-(3-fluoropyridin-4-yl)pyrazin-2-amine], 4 nM.

Values taken from US20100273757A1, “PYRAZINE DERIVATIVES USEFUL AS ADENOSINE RECEPTOR ANTAGONISTS” (Laboratorios Almirall, S.A., priority 2005, published 2010).
